From US8637484B2, “Modulation of growth hormone receptor expression and insulin-like growth factor expression” (Antisense Therapeutic Limited, priority 2003, dated 2014)
In the oligonucleotide strings, read from the 5' end, every base follows the letter of its sugar. An asterisk marks phosphorothioate; unmarked linkages are phosphodiester. Other units and linkages are bracketed, terminal groups are in braces. A string of capitals states the bases alone. e = 2'-O-(2-methoxyethyl) (MOE); [5mC] = 5-methylcytosine; d = 2'-deoxy (DNA)

Tested on: human growth hormone receptor mRNA
Experiment: Inhibition of human growth hormone receptor mRNA levels in MCF7 cells, quantitative real-time PCR
Assay type: cell-based
Set-up: concentration or dose not given beside the values
Conditions: averages from three experiments
Protocol: The human breast carcinoma cell line MCF-7 was obtained from the American Type Culture Collection (Manassas, Va.). MCF-7 cells were routinely cultured in DMEM low glucose (Gibco/Life Technologies, Gaithersburg, Md.) supplemented with 10% fetal calf serum (Gibco/Life Technologies, Gaithersburg, Md.). Cells were routinely passaged by trypsinization and dilution when they reached 90% confluence. Cells were seeded into 96-well plates (Falcon-Primaria #3872) at a density of 7000 cells/well for use in RT-PCR analysis.
When cells reached 65-75% confluency, they were treated with oligonucleotide. For cells grown in 96-well plates, wells were washed once with 100 μL OPTI-MEM™-1 reduced-serum medium (Invitrogen Corporation, Carlsbad, Calif.) and then treated with 130 μL of OPTI-MEM™-1 containing 3.75 μg/mL LIPOFECTIN™ (Invitrogen Corporation, Carlsbad, Calif.) and the desired concentration of oligonucleotide. Cells are treated and data are obtained in triplicate. After 4-7 hours of treatment at 37° C., the medium was replaced with fresh medium. Cells were harvested 16-24 hours after oligonucleotide treatment.
Total RNA was isolated using an RNEASY 96™ kit and buffers purchased from Qiagen Inc. (Valencia, Calif.) following the manufacturer's recommended procedures. Briefly, for cells grown on 96-well plates, growth medium was removed from the cells and each well was washed with 200 μL cold PBS. 150 μL Buffer RLT was added to each well and the plate vigorously agitated for 20 seconds. 150 μL of 70% ethanol was then added to each well and the contents mixed by pipetting three times up and down. The samples were then transferred to the RNEASY 96™ well plate attached to a QIAVAC™ manifold fitted with a waste collection tray and attached to a vacuum source. Vacuum was applied for 1 minute. 500 μL of Buffer RW1 was added to each well of the RNEASY 96™ plate and incubated for 15 minutes and the vacuum was again applied for 1 minute. An additional 500 μL of Buffer RW1 was added to each well of the RNEASY 96™ plate and the vacuum was applied for 2 minutes. 1 mL of Buffer RPE was then added to each well of the RNEASY 96™ plate and the vacuum applied for a period of 90 seconds. The Buffer RPE wash was then repeated and the vacuum was applied for an additional 3 minutes. The plate was then removed from the QIAVAC™ manifold and blotted dry on paper towels. The plate was then re-attached to the QIAVAC™ manifold fitted with a collection tube rack containing 1.2 mL collection tubes. RNA was then eluted by pipetting 140 μL of RNAse free water into each well, incubating 1 minute, and then applying the vacuum for 3 minutes.
Quantitation of growth hormone receptor mRNA levels was accomplished by real-time quantitative PCR using the ABI PRISM™ 7600, 7700, or 7900 Sequence Detection System (PE-Applied Biosystems, Foster City, Calif.) according to manufacturer's instructions. This is a closed-tube, non-gel-based, fluorescence detection system which allows high-throughput quantitation of polymerase chain reaction (PCR) products in real-time. As opposed to standard PCR in which amplification products are quantitated after the PCR is completed, products in real-time quantitative PCR are quantitated as they accumulate. This is accomplished by including in the PCR reaction an oligonucleotide probe that anneals specifically between the forward and reverse PCR primers, and contains two fluorescent dyes. A reporter dye (e.g., FAM or JOE, obtained from either PE-Applied Biosystems, Foster City, Calif., Operon Technologies Inc., Alameda, Calif. or Integrated DNA Technologies Inc., Coralville, Iowa) is attached to the 5′ end of the probe and a quencher dye (e.g., TAMRA, obtained from either PE-Applied Biosystems, Foster City, Calif., Operon Technologies Inc., Alameda, Calif. or Integrated DNA Technologies Inc., Coralville, Iowa) is attached to the 3′ end of the probe. When the probe and dyes are intact, reporter dye emission is quenched by the proximity of the 3′ quencher dye. […]

In order of rising “% INHIB” value:
1. 272306 (antisense eT*eT*eA*eG*eA*dA*dG*dA*dA*dT*dT*dT*dG*dT*d[5mC]*eT*eT*eT*eA*eG) [compound 272306]  13%
2. 227499 (antisense eT*eA*eT*eA*eA*dA*dA*dG*dG*dG*d[5mC]*dT*dT*dT*dG*eT*eA*eA*eA*eA) [compound 227499]  14%
3. 227481 (antisense eT*eG*eG*eT*eG*dA*dT*dG*dT*dA*dA*dA*dT*dG*dT*e[5mC]*e[5mC]*eT*e[5mC]*eT) [compound 227481]  45%
4. 272311 (antisense eT*eT*eG*e[5mC]*eA*d[5mC]*dT*dA*dT*dT*dT*d[5mC]*dA*dT*d[5mC]*eA*eA*e[5mC]*eA*eG) [compound 272311]  47%
5. 272304 (antisense eT*eG*e[5mC]*eT*eA*dA*dG*dG*dA*dT*dA*dG*d[5mC]*dT*dG*e[5mC]*eT*eG*eT*eG) [compound 272304]  48%
6. 227453 (antisense e[5mC]*eA*eT*eA*eA*dT*d[5mC]*dA*dG*dG*dG*d[5mC]*dA*dT*dT*e[5mC]*eT*eT*eT*e[5mC]) [compound 227453]  52%
7. 227482 (antisense eT*eT*e[5mC]*eT*eG*dT*dG*dG*dT*dG*dA*dT*dG*dT*dA*eA*eA*eT*eG*eT) [compound 227482]  53%
8. 272315 (antisense e[5mC]*eA*eA*eT*eG*dA*dG*dT*dA*d[5mC]*dA*d[5mC]*dT*dG*dG*eA*eA*e[5mC]*eT*eG) [compound 272315]  53%
9. 272303 (antisense e[5mC]*e[5mC]*eA*eG*eA*dG*dA*dT*d[5mC]*d[5mC]*dA*dT*dA*d[5mC]*d[5mC]*eT*eG*eT*eA*eG) [compound 272303]  55%
10. 272307 (antisense eG*eT*eG*eA*eA*dT*dT*dT*dA*dG*dG*d[5mC]*dT*d[5mC]*d[5mC]*eT*eT*eA*eG*eA) [compound 272307]  55%
11. 272318 (antisense eT*e[5mC]*eA*eG*e[5mC]*dA*dT*dT*dT*dT*dA*dA*dT*d[5mC]*d[5mC]*eT*eT*eT*eG*e[5mC]) [compound 272318]  55%
12. 227502 (antisense eG*eA*eT*eT*eG*dA*dG*dG*dT*dA*dT*dT*dT*dA*dG*e[5mC]*eT*eA*eT*eT) [compound 227502]  56%
13. 272314 (antisense eT*eA*eG*eG*eG*dT*d[5mC]*d[5mC]*dA*dT*d[5mC]*dA*dT*dT*dT*eT*e[5mC]*e[5mC]*eA*eT) [compound 272314]  56%
14. 272308 (antisense eG*e[5mC]*eT*eG*eT*dA*dT*dG*dG*dG*dT*d[5mC]*d[5mC]*dT*dA*eG*eG*eT*eT*e[5mC]) [compound 272308]  57%
15. 272312 (antisense eG*eG*eG*eT*eG*dG*dA*dT*d[5mC]*dT*dG*dG*dT*dT*dG*e[5mC]*eA*e[5mC]*eT*eA) [compound 272312]  57%
16. 227464 (antisense e[5mC]*e[5mC]*eT*eT*eT*dA*dA*dT*d[5mC]*dT*dT*dT*dG*dG*dA*eA*e[5mC]*eT*eG*eG) [compound 227464]  58%
17. 272302 (antisense eG*eA*eT*e[5mC]*e[5mC]*dA*dT*dA*d[5mC]*d[5mC]*dT*dG*dT*dA*dG*eG*eA*e[5mC]*e[5mC]*eT) [compound 272302]  60%
18. 227468 (antisense eT*e[5mC]*eA*eT*e[5mC]*dA*dA*dT*dA*dT*d[5mC]*dT*dA*dG*d[5mC]*eT*e[5mC]*eA*eA*eT) [compound 227468]  62%
19. 227469 (antisense e[5mC]*eT*eT*eA*eG*dA*dA*dG*dT*d[5mC]*dT*dG*dT*d[5mC]*dT*eG*eT*eG*eT*e[5mC]) [compound 227469]  63%
20. 227484 (antisense eT*eG*eG*eT*eA*dA*dG*dG*d[5mC]*dT*dT*dT*d[5mC]*dT*dG*eT*eG*eG*eT*eG) [compound 227484]  63%
21. 227501 (antisense eG*e[5mC]*eT*eA*eT*dT*dT*dT*dT*dG*dG*d[5mC]*dT*dA*dT*eA*eG*eA*eA*eA) [compound 227501]  64%
22. 272316 (antisense eA*eA*e[5mC]*eT*e[5mC]*dG*d[5mC]*d[5mC]*dA*dT*dA*dA*dT*dT*dT*e[5mC]*e[5mC]*eA*eG*eA) [compound 272316]  64%
23. 272317 (antisense eA*eG*e[5mC]*e[5mC]*e[5mC]*dA*dA*dA*dT*dA*dT*dT*d[5mC]*d[5mC]*dA*eA*eA*eG*eA*eT) [compound 272317]  65%
24. 227480 (antisense eA*eT*eG*eT*eA*dA*dA*dT*dG*dT*d[5mC]*d[5mC]*dT*d[5mC]*dT*eT*eG*eG*eT*eT) [compound 227480]  66%
25. 227490 (antisense eG*e[5mC]*eA*eT*eG*dA*dT*dT*dT*dT*dG*dT*dT*d[5mC]*dA*eG*eT*eT*eG*eG) [compound 227490]  67%
26. 272319 (antisense eA*eT*eT*eT*eT*d[5mC]*d[5mC]*dT*dT*d[5mC]*d[5mC]*dT*dT*dG*dA*eG*eG*eA*eG*eA) [compound 272319]  67%
27. 227475 (antisense e[5mC]*e[5mC]*eT*eG*e[5mC]*dT*dG*dG*dT*dG*dT*dA*dA*dT*dG*eT*e[5mC]*eG*e[5mC]*eT) [compound 227475]  68%
28. 272305 (antisense eT*eT*eG*eT*e[5mC]*dT*dT*dT*dA*dG*dG*d[5mC]*d[5mC]*dT*dG*eG*eA*eT*eT*eA) [compound 272305]  68%
29. 227500 (antisense e[5mC]*eA*eT*eA*eG*d[5mC]*dA*dG*d[5mC]*dA*dA*dA*dG*dT*dA*eG*e[5mC]*eA*eG*eA) [compound 227500]  69%
30. 227483 (antisense eA*eG*eG*e[5mC]*eT*dT*dT*d[5mC]*dT*dG*dT*dG*dG*dT*dG*eA*eT*eG*eT*eA) [compound 227483]  75%
31. 227489 (antisense eT*eG*eT*eT*e[5mC]*dA*dG*dT*dT*dG*dG*dT*d[5mC]*dT*dG*eT*eG*e[5mC]*eT*e[5mC]) [compound 227489]  75%
32. 272310 (antisense eT*eT*eT*e[5mC]*eA*dT*d[5mC]*d[5mC]*dA*d[5mC]*dT*dG*dT*dA*d[5mC]*e[5mC]*eA*e[5mC]*e[5mC]*eA) [compound 272310]  76%
33. 272313 (antisense eA*eT*eT*eG*e[5mC]*dG*dT*dG*dG*dT*dG*d[5mC]*dT*dT*d[5mC]*e[5mC]*e[5mC]*eA*eT*e[5mC]) [compound 272313]  77%
34. 227452 (antisense eT*e[5mC]*eA*eG*eG*dG*d[5mC]*dA*dT*dT*d[5mC]*dT*dT*dT*d[5mC]*e[5mC]*eA*eT*eT*e[5mC]) [compound 227452]  79%
35. 272309 (antisense eT*eA*eA*e[5mC]*eA*dG*d[5mC]*dT*dG*dT*dT*dT*dT*d[5mC]*d[5mC]*e[5mC]*e[5mC]*eA*eG*e[5mC]) [compound 272309]  85%
36. 227488 (antisense eA*eG*eT*eT*eG*dG*dT*d[5mC]*dT*dG*dT*dG*d[5mC]*dT*d[5mC]*eA*e[5mC]*eA*eT*eA) [compound 227488]  86%
